Here are results for 5 molecules from PMC3270411 (Chemistry & biology, 2012).

Where two headings read alike, the source gives them in different places.

Holding throughout (assay type): cell-based
One test has as its target RAF1 (Homo sapiens, UniProt P04049). The experiment in a line: KiNativ cellular kinase profiling. Particulars: for Percent inhibition of kinase labeling by ATP-biotin: A375 cells, 1 μM, 3 hours, RAF1, labeling site Lys2; for inhibition at 1 µM: A-375, read-out: Percent inhibition of kinase labeling by ATP-biotin.
In another test the target is T1, IKKb (Homo sapiens, UniProt O14920).
T1 sequence (O14920 1-756): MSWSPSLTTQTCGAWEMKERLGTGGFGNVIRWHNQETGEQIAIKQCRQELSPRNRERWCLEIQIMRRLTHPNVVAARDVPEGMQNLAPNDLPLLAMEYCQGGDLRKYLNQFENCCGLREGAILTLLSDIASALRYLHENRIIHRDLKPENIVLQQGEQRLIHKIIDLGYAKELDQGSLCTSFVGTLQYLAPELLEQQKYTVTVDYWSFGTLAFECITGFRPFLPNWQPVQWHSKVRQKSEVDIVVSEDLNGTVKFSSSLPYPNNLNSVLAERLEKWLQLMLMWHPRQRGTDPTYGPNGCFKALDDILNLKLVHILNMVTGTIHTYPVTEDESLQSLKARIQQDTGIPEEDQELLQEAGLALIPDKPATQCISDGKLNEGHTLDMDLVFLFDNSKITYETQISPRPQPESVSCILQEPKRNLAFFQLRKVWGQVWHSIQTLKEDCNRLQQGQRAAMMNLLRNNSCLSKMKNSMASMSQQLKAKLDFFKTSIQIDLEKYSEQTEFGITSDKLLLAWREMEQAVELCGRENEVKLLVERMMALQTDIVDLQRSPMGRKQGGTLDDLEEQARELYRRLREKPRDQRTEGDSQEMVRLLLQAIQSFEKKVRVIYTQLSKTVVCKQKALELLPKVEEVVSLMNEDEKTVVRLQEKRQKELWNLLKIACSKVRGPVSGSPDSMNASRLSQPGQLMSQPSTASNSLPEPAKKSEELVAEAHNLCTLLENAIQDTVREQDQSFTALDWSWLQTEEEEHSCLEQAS
The experiment in a line: KiNativ cellular kinase profiling. Conditions: for Percent inhibition of kinase labeling by ATP-biotin: A375 cells, 1 μM, 3 hours, IKKb, labeling site Lys2; for inhibition at 1 µM: A-375, read-out: Percent inhibition of kinase labeling by ATP-biotin.

The target in the next test is ZC2/TNIK (Homo sapiens, UniProt Q9UKE5). Description: KiNativ cellular kinase profiling. Particulars: for Percent inhibition of kinase labeling by ATP-biotin: A375 cells, 1 μM, 3 hours, ZC2/TNIK, labeling site Lys1; for inhibition at 1 µM: A-375, read-out: Percent inhibition of kinase labeling by ATP-biotin.
Sequence of ZC2/TNIK (Q9UKE5 whole entry): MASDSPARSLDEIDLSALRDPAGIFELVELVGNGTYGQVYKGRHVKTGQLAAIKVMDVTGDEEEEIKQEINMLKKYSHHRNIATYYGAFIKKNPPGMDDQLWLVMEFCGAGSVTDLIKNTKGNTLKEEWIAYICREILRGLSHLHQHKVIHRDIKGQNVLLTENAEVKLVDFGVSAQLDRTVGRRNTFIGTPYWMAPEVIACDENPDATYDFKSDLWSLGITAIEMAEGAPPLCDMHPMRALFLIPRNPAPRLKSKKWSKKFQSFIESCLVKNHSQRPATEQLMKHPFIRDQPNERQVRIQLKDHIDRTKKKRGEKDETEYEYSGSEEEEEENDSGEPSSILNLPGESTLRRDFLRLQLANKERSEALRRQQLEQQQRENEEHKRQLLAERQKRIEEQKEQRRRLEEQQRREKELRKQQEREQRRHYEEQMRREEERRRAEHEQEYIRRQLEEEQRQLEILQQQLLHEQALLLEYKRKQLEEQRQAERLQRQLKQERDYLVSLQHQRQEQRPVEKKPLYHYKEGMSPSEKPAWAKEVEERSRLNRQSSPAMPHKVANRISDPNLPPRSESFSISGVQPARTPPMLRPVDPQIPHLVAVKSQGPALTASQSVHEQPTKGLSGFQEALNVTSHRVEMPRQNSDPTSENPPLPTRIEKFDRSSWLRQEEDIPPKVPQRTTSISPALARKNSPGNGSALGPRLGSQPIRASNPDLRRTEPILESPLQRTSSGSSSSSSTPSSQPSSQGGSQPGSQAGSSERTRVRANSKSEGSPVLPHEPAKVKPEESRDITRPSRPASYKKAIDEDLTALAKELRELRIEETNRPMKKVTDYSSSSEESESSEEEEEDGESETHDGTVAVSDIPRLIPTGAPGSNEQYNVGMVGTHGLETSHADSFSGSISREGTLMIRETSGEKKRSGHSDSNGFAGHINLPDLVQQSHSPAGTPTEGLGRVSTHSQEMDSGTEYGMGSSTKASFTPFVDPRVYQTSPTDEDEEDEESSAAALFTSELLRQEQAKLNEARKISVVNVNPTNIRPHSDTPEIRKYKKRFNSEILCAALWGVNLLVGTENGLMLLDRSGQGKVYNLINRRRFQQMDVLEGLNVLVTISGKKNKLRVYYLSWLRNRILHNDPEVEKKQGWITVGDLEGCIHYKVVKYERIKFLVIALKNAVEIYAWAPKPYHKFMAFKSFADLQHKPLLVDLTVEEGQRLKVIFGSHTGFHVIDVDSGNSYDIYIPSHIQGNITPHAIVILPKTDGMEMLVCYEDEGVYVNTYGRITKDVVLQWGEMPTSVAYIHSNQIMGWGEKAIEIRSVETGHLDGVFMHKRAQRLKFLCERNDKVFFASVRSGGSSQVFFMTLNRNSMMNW
A further test deals with ZC2/TNIK,ZC3/MINK. The experiment in a line: KiNativ cellular kinase profiling. Conditions: A375 cells, 1 μM, 3 hours, labeling site Lys2.
A further test concerns the target CDK9 (Homo sapiens, UniProt P50750). Description: KiNativ cellular kinase profiling. Conditions: for Percent inhibition of kinase labeling by ATP-biotin: A375 cells, 1 μM, 3 hours, CDK9, labeling site Lys2; for inhibition at 1 µM: A-375, read-out: Percent inhibition of kinase labeling by ATP-biotin.
Test [1] has as its system ZC1/HGK,ZC2/TNIK, ZC3/MINK. The experiment in a line: KiNativ cellular kinase profiling. Particulars: A375 cells, 1 μM, 3 hours, labeling site Lys2.
For a further test, the system named is CK1d,CK1e. Description: KiNativ cellular kinase profiling. Conditions: A375 cells, 1 μM, 3 hours, labeling site Lys2.
In another test the target is ZAK (Homo sapiens, UniProt Q9NYL2). The experiment in a line: KiNativ cellular kinase profiling. Conditions: for Percent inhibition of kinase labeling by ATP-biotin: A375 cells, 1 μM, 3 hours, ZAK, labeling site Lys1; for inhibition at 1 µM: A-375, read-out: Percent inhibition of kinase labeling by ATP-biotin.
Sequence of ZAK (Q9NYL2 whole entry): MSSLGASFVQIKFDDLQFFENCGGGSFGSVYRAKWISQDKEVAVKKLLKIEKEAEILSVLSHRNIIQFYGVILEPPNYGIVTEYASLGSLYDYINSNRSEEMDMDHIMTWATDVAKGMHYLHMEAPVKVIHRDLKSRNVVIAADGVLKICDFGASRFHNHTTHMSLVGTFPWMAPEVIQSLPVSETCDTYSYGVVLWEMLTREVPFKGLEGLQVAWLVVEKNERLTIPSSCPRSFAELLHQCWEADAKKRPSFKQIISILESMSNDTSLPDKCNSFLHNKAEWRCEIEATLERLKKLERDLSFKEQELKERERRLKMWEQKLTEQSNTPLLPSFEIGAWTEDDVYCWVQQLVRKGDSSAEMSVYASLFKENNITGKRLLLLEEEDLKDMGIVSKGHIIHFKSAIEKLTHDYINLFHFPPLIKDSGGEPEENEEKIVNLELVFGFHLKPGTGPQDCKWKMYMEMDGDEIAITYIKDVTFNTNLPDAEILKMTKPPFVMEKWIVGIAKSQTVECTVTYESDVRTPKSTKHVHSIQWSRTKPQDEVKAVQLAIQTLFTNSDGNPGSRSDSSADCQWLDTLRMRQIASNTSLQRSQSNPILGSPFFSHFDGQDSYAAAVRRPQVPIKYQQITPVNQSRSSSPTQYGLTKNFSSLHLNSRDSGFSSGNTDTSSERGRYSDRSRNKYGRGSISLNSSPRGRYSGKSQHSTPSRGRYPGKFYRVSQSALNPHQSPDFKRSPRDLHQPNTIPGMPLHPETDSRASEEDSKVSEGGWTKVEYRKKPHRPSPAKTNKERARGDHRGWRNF
Test [2] has as its system c-Jun phosphorylation (phospho Ser73) in A375 cells.
The next test deals with AurA,AurB,AurC. The experiment in a line: KiNativ cellular kinase profiling. Particulars: A375 cells, 1 μM, 3 hours, labeling site ATP Loop.
The target of a further test is MARK2 (Homo sapiens, UniProt Q7KZI7). Description: KiNativ cellular kinase profiling. Particulars: for Percent inhibition of kinase labeling by ATP-biotin: A375 cells, 1 μM, 3 hours, MARK2, labeling site Lys1; for inhibition at 1 µM: A-375, read-out: Percent inhibition of kinase labeling by ATP-biotin.
Sequence of MARK2 (Q7KZI7 whole entry): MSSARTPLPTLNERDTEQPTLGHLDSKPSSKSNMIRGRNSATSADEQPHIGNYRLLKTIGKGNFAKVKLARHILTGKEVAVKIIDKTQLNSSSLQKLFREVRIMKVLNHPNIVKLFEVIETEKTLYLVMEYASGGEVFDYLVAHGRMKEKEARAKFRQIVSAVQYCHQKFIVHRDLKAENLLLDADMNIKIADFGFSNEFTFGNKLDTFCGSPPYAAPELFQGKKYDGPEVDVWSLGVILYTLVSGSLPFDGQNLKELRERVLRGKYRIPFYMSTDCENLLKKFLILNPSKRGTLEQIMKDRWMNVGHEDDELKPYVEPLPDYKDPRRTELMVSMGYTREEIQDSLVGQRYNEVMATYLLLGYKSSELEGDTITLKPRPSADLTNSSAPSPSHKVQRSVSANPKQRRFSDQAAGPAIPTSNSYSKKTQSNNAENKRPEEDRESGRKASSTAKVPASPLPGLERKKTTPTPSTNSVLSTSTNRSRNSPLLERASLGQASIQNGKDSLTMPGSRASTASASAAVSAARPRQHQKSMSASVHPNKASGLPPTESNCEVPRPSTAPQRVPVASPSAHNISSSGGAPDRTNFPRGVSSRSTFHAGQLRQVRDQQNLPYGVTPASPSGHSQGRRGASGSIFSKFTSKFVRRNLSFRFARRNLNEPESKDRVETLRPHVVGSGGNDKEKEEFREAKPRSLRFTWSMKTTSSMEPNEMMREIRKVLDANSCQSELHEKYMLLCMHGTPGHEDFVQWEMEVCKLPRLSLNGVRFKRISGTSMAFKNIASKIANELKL
Another test concerns the target T2, ITPK1 (Homo sapiens, UniProt Q13572).
T2 sequence (Q13572 1-414): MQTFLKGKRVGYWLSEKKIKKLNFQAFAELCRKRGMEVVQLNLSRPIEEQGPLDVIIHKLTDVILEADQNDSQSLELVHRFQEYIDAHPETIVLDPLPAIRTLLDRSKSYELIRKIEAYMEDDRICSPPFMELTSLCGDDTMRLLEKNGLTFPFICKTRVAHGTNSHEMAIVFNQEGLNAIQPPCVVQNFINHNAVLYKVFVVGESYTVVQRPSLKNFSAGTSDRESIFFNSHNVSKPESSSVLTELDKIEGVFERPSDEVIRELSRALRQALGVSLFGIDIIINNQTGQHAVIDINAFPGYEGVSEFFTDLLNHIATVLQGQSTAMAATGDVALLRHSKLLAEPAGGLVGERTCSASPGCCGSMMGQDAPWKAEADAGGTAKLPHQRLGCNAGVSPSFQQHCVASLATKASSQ
Description: KiNativ cellular kinase profiling. Conditions: for Percent inhibition of kinase labeling by ATP-biotin: A375 cells, 1 μM, 3 hours, ITPK1, labeling site ATP; for inhibition at 1 µM: A-375, read-out: Percent inhibition of kinase labeling by ATP-biotin.

Another test addresses CK1a (Homo sapiens, UniProt P48729). Description: KiNativ cellular kinase profiling. Conditions: for Percent inhibition of kinase labeling by ATP-biotin: A375 cells, 1 μM, 3 hours, CK1a, labeling site Lys2; for inhibition at 1 µM: A-375, read-out: Percent inhibition of kinase labeling by ATP-biotin.
A further test has as its target GSK3A (Homo sapiens, UniProt P49840). The experiment in a line: KiNativ cellular kinase profiling. Particulars: for Percent inhibition of kinase labeling by ATP-biotin: A375 cells, 1 μM, 3 hours, GSK3A, labeling site Lys2; for inhibition at 1 µM: A-375, read-out: Percent inhibition of kinase labeling by ATP-biotin.
A further test relates to ROCK1,ROCK2. The experiment in a line: KiNativ cellular kinase profiling. Particulars: A375 cells, 1 μM, 3 hours; ROCK1,ROCK2, labeling site Lys2.
Where [3] appears, read: read-out: p-c-Jun EC50 (nM) A375, A375 cells, anisomycin stimulation, microscopy.

Sequence of CDK9 (P50750 whole entry): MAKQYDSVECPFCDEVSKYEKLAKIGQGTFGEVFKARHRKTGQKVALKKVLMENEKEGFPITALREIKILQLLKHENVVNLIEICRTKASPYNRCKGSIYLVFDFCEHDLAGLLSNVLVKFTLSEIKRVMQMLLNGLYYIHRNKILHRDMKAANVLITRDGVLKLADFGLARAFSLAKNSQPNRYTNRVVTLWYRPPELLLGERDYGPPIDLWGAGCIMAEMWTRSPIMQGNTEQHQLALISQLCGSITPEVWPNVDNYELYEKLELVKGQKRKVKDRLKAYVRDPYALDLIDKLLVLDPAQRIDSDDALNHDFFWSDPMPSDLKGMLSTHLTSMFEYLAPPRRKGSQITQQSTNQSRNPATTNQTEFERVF
Sequence of CDK9 (O60563 whole entry partner): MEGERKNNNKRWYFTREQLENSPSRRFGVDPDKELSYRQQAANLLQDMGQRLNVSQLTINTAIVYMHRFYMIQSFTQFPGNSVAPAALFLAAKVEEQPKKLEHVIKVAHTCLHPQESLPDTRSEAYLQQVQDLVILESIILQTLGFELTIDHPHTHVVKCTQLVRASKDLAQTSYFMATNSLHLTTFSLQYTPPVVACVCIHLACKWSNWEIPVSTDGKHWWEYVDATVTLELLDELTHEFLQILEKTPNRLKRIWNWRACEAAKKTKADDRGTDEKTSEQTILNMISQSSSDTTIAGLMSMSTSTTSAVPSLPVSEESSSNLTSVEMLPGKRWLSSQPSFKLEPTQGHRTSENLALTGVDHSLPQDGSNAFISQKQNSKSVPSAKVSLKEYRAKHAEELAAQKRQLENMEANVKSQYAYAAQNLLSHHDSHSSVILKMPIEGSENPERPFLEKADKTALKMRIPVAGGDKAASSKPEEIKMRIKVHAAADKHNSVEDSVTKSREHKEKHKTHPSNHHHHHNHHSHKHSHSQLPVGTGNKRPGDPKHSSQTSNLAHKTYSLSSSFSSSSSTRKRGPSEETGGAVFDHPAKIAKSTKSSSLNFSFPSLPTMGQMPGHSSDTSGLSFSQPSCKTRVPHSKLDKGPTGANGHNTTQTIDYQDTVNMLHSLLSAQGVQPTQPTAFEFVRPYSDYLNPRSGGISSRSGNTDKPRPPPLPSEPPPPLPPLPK
Sequence of CK1a (P48729 whole entry): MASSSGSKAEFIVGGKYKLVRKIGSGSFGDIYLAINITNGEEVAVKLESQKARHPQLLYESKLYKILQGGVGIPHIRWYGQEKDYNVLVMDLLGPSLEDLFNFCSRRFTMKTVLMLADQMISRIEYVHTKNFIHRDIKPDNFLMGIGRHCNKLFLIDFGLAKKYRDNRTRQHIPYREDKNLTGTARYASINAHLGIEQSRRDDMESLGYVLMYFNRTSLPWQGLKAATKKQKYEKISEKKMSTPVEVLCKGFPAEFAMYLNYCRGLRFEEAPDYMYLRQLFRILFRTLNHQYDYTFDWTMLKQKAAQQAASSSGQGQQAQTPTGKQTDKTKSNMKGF
Sequence of RAF1 (P04049 whole entry): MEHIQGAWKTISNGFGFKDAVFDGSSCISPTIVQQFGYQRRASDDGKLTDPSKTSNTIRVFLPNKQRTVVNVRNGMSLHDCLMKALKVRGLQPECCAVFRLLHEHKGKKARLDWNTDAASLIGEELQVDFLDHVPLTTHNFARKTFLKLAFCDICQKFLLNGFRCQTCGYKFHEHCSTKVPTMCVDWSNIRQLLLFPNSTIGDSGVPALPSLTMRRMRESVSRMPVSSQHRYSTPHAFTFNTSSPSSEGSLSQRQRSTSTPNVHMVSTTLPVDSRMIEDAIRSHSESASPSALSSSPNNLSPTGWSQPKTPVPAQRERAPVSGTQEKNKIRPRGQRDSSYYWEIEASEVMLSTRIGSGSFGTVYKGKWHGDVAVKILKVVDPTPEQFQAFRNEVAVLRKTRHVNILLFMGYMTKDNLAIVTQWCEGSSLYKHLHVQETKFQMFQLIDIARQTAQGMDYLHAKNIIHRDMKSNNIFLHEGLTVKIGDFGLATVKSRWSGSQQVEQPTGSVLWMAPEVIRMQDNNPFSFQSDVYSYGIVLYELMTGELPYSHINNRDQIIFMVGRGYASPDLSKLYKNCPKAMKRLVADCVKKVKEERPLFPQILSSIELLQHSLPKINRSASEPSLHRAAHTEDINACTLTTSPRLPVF

As to `CN(C)C/C=C/C(=O)Nc1cccc(C(=O)Nc2ccc(Nc3nccc(/C(C#N)=C4\Nc5ccccc5S4)n3)cc2)c1` [JNK-IN-12], the “Percent inhibition of kinase labeling by ATP-biotin” value (“Percent inhibition” for short) on RAF1 is given as 8.6%; on IKKb it was −97.5%; at ZC2/TNIK it was −8.9%; in the test on ZC2/TNIK,ZC3/MINK it was −36.2%; at CDK9, −35.3%; in [1] it was −25.5%. Further, the “Percent inhibition” value with CK1d,CK1e is −75%; at ZAK, −40.2%; in the test on AurA,AurB,AurC, −20.9%; at MARK2 it was −41.1%; at ITPK1, 8.6%; at CK1a, −96%. Besides, the “Percent inhibition” value at GSK3A is on record as −7.7%; in the test on ROCK1,ROCK2, −91%. Moreover, the EC50 in [2] (setting [3]) turned out to be 134 nM.
Consider `Cc1cc(NC(=O)c2cccc(NC(=O)/C=C/CN(C)C)c2)ccc1Nc1nccc(-c2cccnc2)n1` [JNK-IN-8], for which the inhibition at 1 µM is -41.4% at RAF1; -6.5% on IKKb; 9.9% on ZC2/TNIK; -34.1% at CDK9; -7.8% on ZAK; 9.6% on MARK2. The figures for the inhibition at 1 µM on ITPK1, at CK1a and on GSK3A were 24.6%, -13.6% and 10.6%, respectively. Moreover, the “Percent inhibition” value in the test with ZC2/TNIK,ZC3/MINK is recorded as 45.1%; in test [1] it was −11.3%; in the test with CK1d,CK1e, −21.8%; with AurA,AurB,AurC, −11.3%; in the test with ROCK1,ROCK2, −17.1%. In [2] (Homo sapiens, A-375, read-out: p-c-Jun EC50 (nM) A375), the EC50 was found to be 338 nM.
For `CCC(=O)Nc1cccc(C(=O)Nc2ccc(Nc3nccc(-c4cccnc4)n3)cc2)c1` [JNK-IN-6], the “Percent inhibition” value on RAF1 is listed as −20.2%; at IKKb, 33.4%; on ZC2/TNIK, −15.9%; with ZC2/TNIK,ZC3/MINK, 52.8%; on CDK9, 7.6%; in test [1] it was 8.8%. Besides, the “Percent inhibition” value is recorded as 32.4% with CK1d,CK1e; 3% at ZAK; 4.9% with AurA,AurB,AurC; 13.4% on MARK2; 27% at ITPK1; 19.5% on CK1a. Moreover, the “Percent inhibition” value is reported as 6.8% on GSK3A and 11.6% in the test with ROCK1,ROCK2. Also, the EC50 in test [2] (setting [3]) came out at 1900 nM.
Turning to `CN(C)C/C=C/C(=O)Nc1cccc(C(=O)Nc2ccc(Nc3nccc(-c4c(-c5ccccc5)nn5ccccc45)n3)cc2)c1` [JNK-IN-11], the inhibition at 1 µM on RAF1 is 25.5%; at IKKb, -11.2%; at ZC2/TNIK, greater than 80%; on CDK9, -23.4%; on ZAK, 84.4%; on MARK2, 20.8%. For the same molecule, the values for the inhibition at 1 µM on ITPK1, on CK1a and on GSK3A were -0.7%, 61.1% and 40.7%, respectively. The “Percent inhibition” value is listed as 75.9% with ZC2/TNIK,ZC3/MINK; 65.1% in test [1]; 88.4% in the test on CK1d,CK1e; 53.8% in the test on AurA,AurB,AurC; −33.9% in the test on ROCK1,ROCK2.
With `CN(C)C/C=C/C(=O)Nc1cccc(C(=O)Nc2ccc(Nc3nccc(-c4cccnc4)n3)cc2)c1` [JNK-IN-7], the inhibition at 1 µM is -7.3% at RAF1; -10.1% at IKKb; 20.9% at ZC2/TNIK; 16.6% on CDK9; 15.5% on ZAK; 23.6% at MARK2. Also, the inhibition at 1 µM at ITPK1 was -0.2%; at CK1a, -20.2%; at GSK3A it was 20.4%. Further, the “Percent inhibition” value in the test on ZC2/TNIK,ZC3/MINK is 31%; in test [1], 8.3%; with CK1d,CK1e, 8.4%; in the test with AurA,AurB,AurC, 19.1%; in the test with ROCK1,ROCK2 it was −21.5%.

One may read the EC50 as the concentration at which the effect is half-maximal. By inhibition is commonly meant the change of the read-out against control, counted positive when it falls.
